Assay results from US6693207B2, “B-ring estratriene diols” (Wyeth, priority 1997, dated 2004).

Test system: uterine weight, immature rats
Experiment: In vivo uterotropic activity
Set-up: species or system rat
Details: 0.2 and 2 mg/kg, three days, S.C.
Experimental: Immature rats were treated with doses of 0.2 and 2 mg/kg 5,7,9-estratriene-3β,17β-diol for three days (S.C.) as well as additional groups (n=6) of rats treated with 0.5 μg ethinyl estradiol and vehicle as positive and negative controls, respectively.

C[C@]12CCc3c(ccc4c3CC[C@H](O)C4)[C@@H]1CC[C@@H]2O [5,7,9-estratriene-3β,17β-diol]
uterine weight: uterine weight gains at both concentrations
